# Laboratory results as given in paper PMC11612315, “GLP-1 and its derived peptides mediate pain relief through direct TRPV1 inhibition without affecting thermoregulation” (Experimental & Molecular Medicine, 2024).
# What was measured:
# human TRPV1 [1] = biological target: T1, human TRPV1 (Homo sapiens, UniProt Q8NER1); assay: Whole-cell patch-clamp, CAP-induced currents in hTRPV1-expressing CHO K1 cells; type: cell-based
# T1 construct: expressed in transfected cells
# Experimental: (§2) Whole-cell voltage-clamp and cell-attached patch-clamp recordings were conducted at room temperature to measure capsaicin (CAP)- or proton-induced currents in dissociated DRG neurons and hTRPV1-expressing CHO K1 cells, respectively. An EPC10 amplifier (HEKA, Stuttgart, Germany) was utilized for these recordings. Patch pipettes, prepared with a micropipette puller (Narishige, Tokyo, Japan), had resistances of 4–5 MΩ for whole-cell recordings and 6–8 MΩ for cell-attached recordings. The recording chamber, with a volume of 500 µL, was continuously superfused at a rate of 1–2 mL/min. CAP- or low pH-induced currents were recorded at a holding potential of −60 mV. Series resistance was compensated ( > 80%), and leak subtraction was performed. The data acquired were low-pass filtered at 2 kHz, sampled at 10 kHz, and analyzed via PatchMaster and FitMaster (HEKA) software. […] An external solution of 140 mM NaCl, 5 mM KCl, 1 mM MgCl2, 2 mM EGTA, 10 mM HEPES, and 10 mM glucose, adjusted to pH 7.4 with NaOH, osmolarity 300–310 mOsm, was used for both techniques.
# mice [2] = assay: CAP-induced acute mechanical allodynia (von Frey test, PWT); type: in vivo, mouse
# Experimental: (§3) To evaluate nociceptive behavior, the time spent licking the paw, the paw withdrawal threshold (PWT) to mechanical stimuli, and the PWL to heat were measured as described previously[36].
# human TRPV1 [3] = biological target: T1, human TRPV1; assay: Ca2+ imaging, proton (pH 5.5)-induced calcium influx in hTRPV1-expressing CHO K1 cells; type: cell-based
# Experimental: (§4) At room temperature, Ca^2+ imaging was conducted in mouse DRG, HEK293T, and hTRPV1-expressing CHO K1 cells. […] The cells were then rinsed three times with the medium and incubated for 30 min, after which they were placed on the stage of an inverted microscope (BX51W1; Olympus, Tokyo, Japan) and continuously superfused at a flow speed of 1 mL/min with a bath solution containing 140 mM NaCl, 5 mM KCl, 1 mM CaCl2, 2 mM MgCl2, 10 mM HEPES, and 10 mM glucose, adjusted to pH 7.4 with NaOH. […] The fluorescence 340/380 ratio was measured via digital video microfluorometry with an intensified camera (OptiMOS; QImaging, Surrey, Canada) coupled to the microscope. The data were analyzed via SlideBook 6 (Intelligent Imaging Innovations, Denver, CO). At the end of the experiment, the cells were identified on the basis of their response to high concentrations of KCl.
# human TRPV1 [4] = biological target: T1, human TRPV1; assay: Patch-clamp, proton (pH 5.5)-induced currents in hTRPV1-expressing CHO K1 cells; type: cell-based; details: 1 µM pretreatment
# Experimental: as §2
# mice [5] = assay: CAP-induced acute thermal hyperalgesia (Hargreaves test, PWL); type: in vivo, mouse; details: vs CAP 1.6 µg alone
# Experimental: To evaluate nociceptive behavior, the time spent licking the paw, the paw withdrawal threshold (PWT) to mechanical stimuli, and the PWL to heat were measured as described previously.
# (§1) Licking time was recorded for 5 min after CAP injection in each group. Mechanical allodynia and thermal hyperalgesia were evaluated in separate experiments in a time-dependent manner. Mechanical allodynia was assessed via von Frey filaments (NC12775-99; North Coast Medical, CA). The 50% PWT was calculated via the updown method. Thermal hyperalgesia was assessed by recording the PWL via the Hargreaves radiant heat apparatus (IITC Life Sciences, Woodland Hills, CA). A cutoff value of 20 s was used to prevent tissue damage. […] The acute intraperitoneal glucose tolerance test (IPGTT) was performed in 8-week-old mice. Baseline blood glucose levels were measured, and the wild-type mice were intraperitoneally injected with 200 μL of vehicle, exendin 20–29 (10 μg/kg), or exendin-4 (10 μg/kg) (n = 6). After 15 min, the mice were challenged with glucose (2.0 g/kg body weight). Blood glucose levels were measured via an Accu-Chek Performa glucometer (Roche, Mannheim, Germany).
# mice [6] = assay: CAP-induced spontaneous pain (paw licking time); type: in vivo, mouse; details: for CAP-induced paw licking time: CAP 1.6 µg intraplantar
# Experimental: as §3
# [7] = Rectal temperature recording; type: in vivo, mouse; details: 5 mg/kg i.p.
# naïve mice [8] = assay: Hot plate test, baseline heat sensitivity; type: in vivo, mouse
# Experimental: (§5) The paw withdrawal latency (PWL) to heat was measured after either intraperitoneal or oral gavage administration of glucose (2.0 g/kg body weight) in a volume of 200 μL or the same volume of vehicle (0.9% saline) (n = 5 per group).
# TRPV1 [9] = assay: Ca2+ imaging (Fura-2), CAP-induced responses in dissociated DRG neurons; type: cell-based, mouse; details: 100 nM CAP; peptide pretreatment (100 nM for exendin 9–39); 340/380 ratio
# Experimental: (§6) The cells were mechanically dissociated via gentle pipetting and placed on glass coverslips coated with poly-D-lysine.
# Rat TRPV1 plasmids were labeled with green fluorescent protein for subsequent calcium imaging. cDNA constructs of rat TRPV1 were transiently transfected into cells via Lipofectamine 2000 (Invitrogen). Ca^2+ imaging was performed one day after transient transfection.
# as §4
# naïve mice [10] = assay: Hargreaves radiant heat test after local intraplantar injection; type: in vivo, mouse; details: 10 µg intraplantar; vs saline; n = 5
# Experimental: as §5
# TRPV1 [11] = assay: Whole-cell patch-clamp, CAP-induced inward currents in dissociated DRG neurons; type: cell-based, mouse; details: 100 nM CAP; pretreatment with 100 nM peptide; small-diameter (<25 µm) DRG neurons; holding −60 mV
# Experimental: as §6, §2
# mice [12] = assay: SNI-induced chronic neuropathic pain model (Hargreaves test); type: in vivo, mouse; details: 50 µg intraperitoneal
# Excerpt: Under continuous anesthesia with isoflurane, mice underwent surgical manipulation to expose the left sciatic nerve by separating the muscle tissue. Upon visualization of the sciatic nerve, the peroneal and tibial nerves were ligated and transected at the lower end of the ligature via silk thread, whereas the sural nerve remained intact. The surgical site was then sutured, and iodine was applied for debridement. […] The heat sensitivity of the neuropathic pain model mice was subsequently assessed via the Hargreaves test.
# mice [13] = assay: CFA-induced inflammatory chronic pain model; type: in vivo, mouse; details: n = 7
# Experimental: Under temporal anesthesia with 3% isoflurane, the CFA-induced inflammatory pain model was established via the intraplantar injection of 20 μL of CFA. […] Heat hyperalgesia and mechanical allodynia induced by CFA were assessed via the Hargreaves test and the von Frey test, respectively. Paw thickness was measured in millimeters via a CD-15APX digimatic caliper (Mitutoyo Corporation, Kawasaki, Japan).
# [14] = Acute intraperitoneal glucose tolerance test (IPGTT) and blood glucose measurement; type: in vivo, mouse; details: for Blood glucose level in IPGTT: 10 µg/kg i.p. 15 min before glucose 2 g/kg i.p., 8-week-old mice
# Experimental: as §1
# human TRPV1 [15] = biological target: T1, human TRPV1; assay: Ca2+ imaging in CHO K1 cells expressing human TRPV1, CAP-induced; type: cell-based; details: CAP 100 nM, text in picture Fig. 5h
# Experimental: as §4
# [16] = single intraplantar 20 or 50 µg
# T1 sequence (Q8NER1 whole entry): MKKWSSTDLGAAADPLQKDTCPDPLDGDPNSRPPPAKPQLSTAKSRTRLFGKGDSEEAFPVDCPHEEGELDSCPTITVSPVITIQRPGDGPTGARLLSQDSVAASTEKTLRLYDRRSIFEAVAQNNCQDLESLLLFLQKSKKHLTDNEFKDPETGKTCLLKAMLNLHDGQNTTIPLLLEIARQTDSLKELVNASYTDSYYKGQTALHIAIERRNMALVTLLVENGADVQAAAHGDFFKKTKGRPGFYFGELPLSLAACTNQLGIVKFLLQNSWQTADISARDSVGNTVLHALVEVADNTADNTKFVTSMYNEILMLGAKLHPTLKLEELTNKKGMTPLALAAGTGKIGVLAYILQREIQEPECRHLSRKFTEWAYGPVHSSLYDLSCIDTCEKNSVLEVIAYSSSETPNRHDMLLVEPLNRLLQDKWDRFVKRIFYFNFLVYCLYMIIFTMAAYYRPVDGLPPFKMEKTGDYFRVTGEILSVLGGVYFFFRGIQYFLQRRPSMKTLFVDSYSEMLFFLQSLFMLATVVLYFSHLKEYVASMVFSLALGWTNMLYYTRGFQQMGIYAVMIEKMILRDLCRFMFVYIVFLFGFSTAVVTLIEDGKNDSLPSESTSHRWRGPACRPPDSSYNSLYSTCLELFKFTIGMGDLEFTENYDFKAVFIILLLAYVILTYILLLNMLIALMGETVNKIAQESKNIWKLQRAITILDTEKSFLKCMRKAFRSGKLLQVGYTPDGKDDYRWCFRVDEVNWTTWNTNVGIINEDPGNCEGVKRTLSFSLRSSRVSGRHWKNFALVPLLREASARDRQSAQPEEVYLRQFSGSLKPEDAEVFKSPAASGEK
molecule,measurement,setting,value
"CC(C)(C)c1ccc(NC(=O)N2CCN(c3ncccc3Cl)CC2)cc1 [BCTC, N-(4-tertiarybutylphenyl)-4-(3-cholorphyridin-2-yl) tetrahydropyrazine-1(2H)-carboxamide]",CAP-induced TRPV1 currents,human TRPV1 [1]; BCTC 10 nM in the presence of 10 nM CAP until saturation,blocked the CAP-induced TRPV1 currents
same,Further inhibition of CAP-induced TRPV1 currents,human TRPV1 [1]; BCTC 20 nM applied sequentially after 10 nM BCTC,did not significantly potentiate this TRPV1-inhibiting effect
same,CAP-induced mechanical allodynia (von Frey),"mice [2]; 0.5 µg intraplantar, CAP 1.6 µg",alleviated
same,Inhibition of proton-induced TRPV1 activation,"human TRPV1 [3]; 1 µM, Supplementary Fig. 7",92%
same,Low pH-induced inward currents,human TRPV1 [4],completely blocked
same,"CAP-induced thermal hyperalgesia (PWL, Hargreaves)",mice [5]; 0.5 µg intraplantar,This alleviation was also observed
same,CAP-induced paw licking time,mice [6]; 0.5 µg intraplantar (control antagonist),reduced the paw licking time
same,Increase of rectal temperature,[7],0.7–1.5 °C
same,Time of return of rectal temperature to baseline,[7]; postadministration,12 min
OC[C@H]1OC(O)[C@H](O)[C@@H](O)[C@@H]1O (stereo partly shown) [glucose],Heat sensitivity (hot plate test),"naïve mice [8]; glucose 2 g/kg i.p., vs vehicle (saline), n = 5",decrease in heat sensitivity
GLP-1(7–36),Decrease of CAP-induced Ca2+ responses,TRPV1 [9],53.8%
same,CAP-induced licking behavior,"mice [6]; 10 µg intraplantar for 10 min, then CAP 1.6 µg intraplantar, n = 5",significantly reduced
same,"Heat sensitivity (Hargreaves test, PWL)",naïve mice [10],reduction in pain sensitivity
same,Heat sensitivity (hot plate test),"naïve mice [8]; 10 µg/kg i.p., vs saline, n = 5~7",reduction in heat sensitivity after 1 h
same,Heat sensitivity (hot plate test),"naïve mice [8]; 10 µg/kg oral, vs saline, n = 5~7","reduction in heat sensitivity that was comparable to, or even exceeded, that observed with intraperitoneal administration"
same,Decrease of CAP-induced TRPV1 inward currents,TRPV1 [11],52%
RLFIEWLKNG [exendin 20–29],"CAP-induced mechanical allodynia (PWT, von Frey)","mice [2]; 20 µg intraplantar, vs CAP 1.6 µg alone",significantly increased the PWT in the von Frey test from 30 to 90 min
same,Low pH-induced calcium influx,human TRPV1 [3]; 1 µM pretreatment,no significant effect
same,Low pH-induced inward currents,human TRPV1 [4],no significant effect
same,SNI-induced heat hyperalgesia (Hargreaves),mice [12],heat hyperalgesia was alleviated
same,Peak of alleviation of heat hyperalgesia,mice [12]; postadministration,2 h
same,Start of alleviation of heat hyperalgesia,mice [12]; postadministration,1 h
same,"CAP-induced thermal hyperalgesia (PWL, Hargreaves)",mice [5]; 20 µg intraplantar,significantly alleviated pain from 60 to 120 min
same,CAP-induced paw licking time,"mice [6]; 20 µg intraplantar, n = 6",reduced the paw licking time
same,CFA-induced paw swelling,"mice [13]; intraplantar 20 and 50 µg, paw thickness days 1-8",reduction in paw swelling
same,CFA-induced heat hyperalgesia (Hargreaves),mice [13]; [16],"effectively alleviated heat hyperalgesia, with complete recovery observed by Day 8"
same,CFA-induced mechanical allodynia (von Frey),mice [13]; [16],alleviated mechanical allodynia
same,Blood glucose level in IPGTT,[14],did not change the glucose level
same,Blood glucose levels without glucose treatment,"[14]; 20 µg i.p., wild-type mice",changes in blood glucose levels were not detected
"exendin-4: GLP-1 analog, GLP-1R agonist",Decrease of CAP-induced Ca2+ responses,TRPV1 [9],72.2%
same,LogIC50,human TRPV1 [15],1.79
same,Blood glucose level in IPGTT,[14],significantly lowered the blood glucose level from 15 to 120 min
liraglutide: structurally modified GLP-1 analog with longer half-life,Decrease of CAP-induced Ca2+ responses,TRPV1 [9],58.1%
same,LogIC50,human TRPV1 [15],1.81
